Data reported in patent US20220160751A1, “METHODS OF TREATMENT OF DISEASES AND DISORDERS ASSOCIATED WITH INCREASED TET LEVEL, INCREASED H19 LEVEL, INCREASED LEVEL OF TGF SIGNALING, OR ANY COMBINATION THEREOF” (YALE UNIVERSITY, priority 2019, published 2022).

Columns and labels:
[1] = system: HUVECs; assay: RT-qPCR and Western blot of gene expression in HUVECs; type: cell-based, human; conditions: for H19 expression (RT-qPCR): overnight treatment vs vehicle
Protocol: HUVECs (Lonza, CC-2517) were maintained in a growth medium composed of endothelial basal medium (EBM-2, CC-3156) supplemented with EGM-2 MV BulletKit (CC-4147, Lonza). Cells were used between passages P2-P5. For cytokine treatment, cells were incubated overnight with indicated concentrations of TNF-α, TNF-α plus IL-1β, or Hcy in endothelial basal medium. Cells were transfected in a 24-well plate scale. To prepare siRNA transfection solution for each well, 10 pmol of siCon, siH19, or siTET1 were mixed with 25 μl of OPTI-MEM by gentle pipetting. In parallel, 1 μl of Lipofectamine 3000 was mixed with 25 μl of OPTI-MEM. Following 5 min of incubation at RT, the two were mixed by gentle pipetting and incubated for 10 min at RT to allow siRNA/lipid complexes to form. At the end of incubation, the 50 μl of transfection solution was used to resuspend cell pellet (3×10^4 cells/well). After incubation at room temperature (RT) for 10 min, growth medium was added at a ratio of 1:9 (1 volume of transfection solution/9 volumes of growth medium) and the cell suspension was transferred to a culture plate. For cytokine treatment combined with H19 knockdown, cells were transfected with siCon or siH19 for 24 h, followed by addition of TNF-α at a final concentration of 10 ng/ml for an additional 24 h before RNA extraction. For iLet 7 rescue experiments, 10 pmol of siCon+iCon, iCon+siH19, or siH19+iLet7 were used for each well of 3×10^4 cells. Forty-eight hours after the transfection, RNA and protein were extracted for analysis.
To prepare DNA/lipid complexes for pH19/pTET1 overexpression (FIG. 23) or pTET1 overexpression rescue (FIG. 22) experiments, empty vector (0.5 μg), pH19 ([…]), or pTET1 (0.75 μg) were mixed with 1 μl of P3000 in 25 μl of OPTI-MEM by gentle pipetting. In parallel, 0.75 μl of Lipofectamin 3000 was mixed with 25 μl of OPTI-MEM. The contents in the two tubes were mixed by gentle pipetting and incubated at RT for 5 min. The resulting DNA/lipid complexes (50 μl) were added to one well of cells (8×10^4) which had been seeded in a 24-well plate in growth medium the night before. Following incubation at RT for 10 min, 300 μl of OPTI-MEM was added and cells were incubated in a tissue culture incubator for 4-6 h. […]
HUVECs in 24-well plates were dissociated with 0.25% trypsin. […] Bands on Western blot gels were quantified using ImageJ. […]
Total RNAs were extracted using PureLink RNA Mini Kit (Ambion, catalog number 12183018A). cDNA was synthesized using PrimeScript RT Reagent Kit (TAKARA, RR037A) in a 20 μl reaction containing 0.5-1 μg of total RNA. Real-time quantitative PCR was performed in a 15 μl reaction containing 0.5-1 μl of cDNA using iQSYBRGreen (Bio-Rad) in a Bio-Rad iCycler. […]

[2] = system: UtLM and ht-UtLM leiomyoma cells; assay: RT-qPCR and Western blot of gene expression in leiomyoma cells; type: cell-based, human; conditions: ht-UtLM cells, 24 h, 10^−8M
Text: Antibodies for TET3 (GeneTex, GTX121453; used at a dilution of 1/500), TGFBR2 (Abcam, ab184948; used at a dilution of 1/1000), TSP1 (Abcam, ab85762; used at a dilution of 1/500), MED12 (Novus Biological, NB100-2357; used at a dilution of 1/500), HMGA2 (Proteintech, 20795-1-AP; used at a dilution of 1/500), GRAF1 (Cell Signaling, 8802; used at a dilution of 1/500), SPARC (Cell Signaling, 8725; used at a dilution of 1/500), COL3A1 (LS-Bio, LS-C159386; used at a dilution of 1/1000), COL4A1 (LS-Bio, LS-C100552; used at a dilution of 1/500), COL5A2 (Origene, TA809611; used at a dilution of 1/500) and GAPDH (Abcam, ab128915; used at a dilution of 1/10000) were purchased. Human H19 siRNA (siH19) and control siRNA (siCon) were previously described (Ghazal S et al., 2015, EMBO Mol Med 7:996-1003). siTET3 (Ambion, 4392420/s47239), estradiol ([…], Sigma), and progesterone ([…], Sigma) were purchased. Estradiol and progesterone were dissolved in DMSO and used at a final concentration of 10^-8M. ht-UtLM cells tested negative for mycoplasma contamination were maintained in MEM (Sigma, #M3024) supplemented with 20% fetal bovine serum, 1×MEM Vitamin Solution (Invitrogen #11120-052), 1×MEM Amino Acids Solution (Invitrogen, #11130-051), and 1×MEM Non-Essential Amino Acids (Invitrogen #11140-050). Primary UtLM-1 and UtLM-2 cells were maintained in DMEM (Gibco, #10567014) supplemented with 20% fetal bovine serum, and 1% penicillin/streptomycin, 1% amphotericin B. All cells were transfected in a 24-well plate scale. To prepare siRNA transfection solution for each well, 10 pmol (5 pmol for primary cells) of siCon, siH19, or siTET3 were mixed with 25 μl of OPTI-MEM by gentle pipetting. In parallel, 1 μl of Lipofectamine 3000 was mixed with 25 μl of OPTI-MEM. Following 5 min of incubation at room temperature, the two were mixed by gentle inverting and incubated for 10 min at room temperature to allow siRNA/lipid complexes to form. At the end of incubation, the 50 μl of transfection solution was used to re-suspend the cell pellet (3×10^4 cells). After incubation at room temperature for 10 min, growth medium was added at a ratio of 1:9 (1 volume of transfection solution/9 volumes of growth medium), and the cell suspension was transferred to a new culture dish. After overnight incubation in a tissue culture incubator, the medium was replaced with fresh growth medium. For iLet 7 rescue experiments, 10 pmol of siCon/siH19 and 10 pmol of iCon/iLet7 were used for each well of 3×10^4 cells. RNA, genomic DNA, and protein were extracted and analyzed at the indicated time points following transfection.

Row | Compound | H19 expression (RT-qPCR) [1] | H19 expression [2] | expression of TET1, TGFBR2 and TSP1 (RT-qPCR) ([1]; TNF-α 10 ng/ml 24 h vs vehicle)
1 | N[C@@H](CCS)C(=O)O [Hcy, L-Homocysteine] | dose-dependently upregulates H19 | – | –
2 | CC(=O)[C@H]1CC[C@H]2[C@@H]3CCC4=CC(=O)CC[C@]4(C)[C@H]3CC[C@]12C [progesterone] | – | did not affect H19 expression | –
3 | IL-1β: Recombinant human IL-1β (R&D Systems, 201-LB), combined with TNF-α | additive effect | – | –
4 | TNF-α | stimulates H19 expression in a dose-dependent manner | – | upregulated expression of TET1, TGFBR2 and TSP1
